The text below walks through data of patent US3939277A, “Insecticidal biodegradable analogues of DDT” (priority 1973, dated 1976).

The structures appear in SMILES notation. Converted amounts (≈) assume the structure as drawn.

In the first series the test system is female house flies, Musca domestica, DDT-resistant (Rsp). As to the kind of experiment: Topical application to female house flies, DDT-resistant (Rsp) strain. The settings on record: read-out: topical LD50 female housefly, DDT-resistant. How it is done: (§1) Compositions of the present invention were tested for insecticidal activities determined by standard methods, and compared with the activities of DDT and other symmetrical analogues of DDT, e.g. methoxychlor. In these tests, female house flies, Musca domestica, under CO2 anesthesia, were treated with topical application of 1 ul drops of w/v solutions of the insecticides in acetone. Three replicates of 20 flies 2-4 days old were treated on the pronotum at each dosage, and at least 5 dosages were used to establish each dosage versus mortality curve. Mortalities were determined by holding the flies at 72° F. (22° C.) with 40% sucrose solution as food. Topical applications were made to both susceptible (SNAIDM) and DDT-resistant (Rsp) strains in exactly the same manner. The results of these evaluations are reported in Table II as LD50 values in ug. of toxicant per gram of insect using the average weight of the house fly as 20 mg. Evaluations of the toxicity of the same compositions to the larvae of the mosquitoes Culex pipiens quinquefasciatus and Anopheles albimanus were made as described by WHO (VBC/1968) and the results are also shown in Table II.
The term LD50 denotes the dose expected to kill half of the subjects tested. Take `Clc1ccc(C(c2ccc(Cl)cc2)C(Cl)(Cl)Cl)cc1` [DDT, 1,1,1-trichloro-2,2-bis(p-chlorophenyl)ethane, reference compound]: the LD50 turned out to be 170 mg/kg.

For the molecule `COc1ccc(C(c2ccc(SC)cc2)C(Cl)(Cl)Cl)cc1` (stereo not drawn) [Example I, 2-(p-methoxyphenyl)-2-(p-methylthiophenyl)-1,1,1-trichloroethane], the 50% lethal dose (LD50) was 80 mg/kg.

On to `COc1ccc(C(c2ccc(C)cc2)C(Cl)(Cl)Cl)cc1` (stereo not drawn) [Example III], for which the LD50 was determined as 62.5 mg/kg.

Take `CCOc1ccc(C(c2ccc(SC)cc2)C(Cl)(Cl)Cl)cc1` (stereo not drawn) [Example II]: the LD50 turned out to be 85 mg/kg.

With `CCOc1ccc(C(c2ccc(C)cc2)C(Cl)(Cl)Cl)cc1` (stereo not drawn) [Example IV], the LD50 turned out to be 27 mg/kg.

Turning to `CCc1ccc(C(c2ccc(C)cc2)C(Cl)(Cl)Cl)cc1` (stereo not drawn) [Example VI], the LD50 was found to be 28 mg/kg.

Consider `CCCOc1ccc(C(c2ccc(C)cc2)C(Cl)(Cl)Cl)cc1` (stereo not drawn) [Example V], for which the LD50 came to 55 mg/kg.

Consider `COc1ccc(C(c2ccc(OC)cc2)C(Cl)(Cl)Cl)cc1` [Methoxychlor, 1,1,1-trichloro-2,2-bis-(pmethoxyphenyl)ethane, reference compound], for which the LD50 was determined as 48 mg/kg.

In another series the test system is larvae of the mosquito Culex pipiens quinquefasciatus. Nature of the series: Toxicity to mosquito larvae as described by WHO (VBC/1968), Culex pipiens quinquefasciatus. It counts as in vivo.
Conditions: not given
By LC50 is commonly meant the concentration that kills 50% of the test population. The molecule `Clc1ccc(C(c2ccc(Cl)cc2)C(Cl)(Cl)Cl)cc1` [DDT, 1,1,1-trichloro-2,2-bis(p-chlorophenyl)ethane, reference compound] showed an LC50 of 0.07 µg/mL (≈ 0.197 µM).

`COc1ccc(C(c2ccc(SC)cc2)C(Cl)(Cl)Cl)cc1` (stereo not drawn) [Example I, 2-(p-methoxyphenyl)-2-(p-methylthiophenyl)-1,1,1-trichloroethane] had an LC50 of 0.11 µg/mL (≈ 0.304 µM).

For `COc1ccc(C(c2ccc(C)cc2)C(Cl)(Cl)Cl)cc1` (stereo not drawn) [Example III], the LC50 was found to be 0.085 µg/mL (≈ 0.258 µM).

`CCOc1ccc(C(c2ccc(SC)cc2)C(Cl)(Cl)Cl)cc1` (stereo not drawn) [Example II] displayed an LC50 of 0.07 µg/mL (≈ 0.186 µM).

The molecule `CCOc1ccc(C(c2ccc(C)cc2)C(Cl)(Cl)Cl)cc1` (stereo not drawn) [Example IV] yielded an LC50 of 0.13 µg/mL (≈ 0.378 µM).

In turn, `CCc1ccc(C(c2ccc(C)cc2)C(Cl)(Cl)Cl)cc1` (stereo not drawn) [Example VI] had an LC50 of 0.08 µg/mL (≈ 0.244 µM).

As to `CCCOc1ccc(C(c2ccc(C)cc2)C(Cl)(Cl)Cl)cc1` (stereo not drawn) [Example V], the LC50 worked out at 0.04 µg/mL (≈ 0.112 µM).

With `COc1ccc(C(c2ccc(OC)cc2)C(Cl)(Cl)Cl)cc1` [Methoxychlor, 1,1,1-trichloro-2,2-bis-(pmethoxyphenyl)ethane, reference compound], the LC50 amounted to 0.067 µg/mL (≈ 0.194 µM).

A further series concerns female house flies, Musca domestica, susceptible (SNAIDM). Nature of the series: Topical application to female house flies, susceptible (SNAIDM) strain. The settings on record: read-out: topical LD50 female housefly, Susceptible. How it is done: as §1
Take `Clc1ccc(C(c2ccc(Cl)cc2)C(Cl)(Cl)Cl)cc1` [DDT, 1,1,1-trichloro-2,2-bis(p-chlorophenyl)ethane, reference compound]: the LD50 was 14 mg/kg.

Take `COc1ccc(C(c2ccc(SC)cc2)C(Cl)(Cl)Cl)cc1` (stereo not drawn) [Example I, 2-(p-methoxyphenyl)-2-(p-methylthiophenyl)-1,1,1-trichloroethane]: the LD50 came out at 23.5 mg/kg.

As to `COc1ccc(C(c2ccc(C)cc2)C(Cl)(Cl)Cl)cc1` (stereo not drawn) [Example III], the LD50 was determined as 23.5 mg/kg.

Take `CCOc1ccc(C(c2ccc(SC)cc2)C(Cl)(Cl)Cl)cc1` (stereo not drawn) [Example II]: the LD50 worked out at 32 mg/kg.

For `CCOc1ccc(C(c2ccc(C)cc2)C(Cl)(Cl)Cl)cc1` (stereo not drawn) [Example IV], the LD50 worked out at 9 mg/kg.

Consider `CCc1ccc(C(c2ccc(C)cc2)C(Cl)(Cl)Cl)cc1` (stereo not drawn) [Example VI], for which the LD50 is 11 mg/kg.

For `CCCOc1ccc(C(c2ccc(C)cc2)C(Cl)(Cl)Cl)cc1` (stereo not drawn) [Example V], the LD50 stood at 20 mg/kg.

On to `COc1ccc(C(c2ccc(OC)cc2)C(Cl)(Cl)Cl)cc1` [Methoxychlor, 1,1,1-trichloro-2,2-bis-(pmethoxyphenyl)ethane, reference compound], for which the median lethal dose (LD50) was 45 mg/kg.

Another series has as its system larvae of the mosquito Anopheles albimanus. As to the kind of experiment: Toxicity to mosquito larvae as described by WHO (VBC/1968), Anopheles albimanus.
Conditions: not given
It is filed as in vivo.
`Clc1ccc(C(c2ccc(Cl)cc2)C(Cl)(Cl)Cl)cc1` [DDT, 1,1,1-trichloro-2,2-bis(p-chlorophenyl)ethane, reference compound] came in with an LC50 of 0.016 µg/mL (≈ 0.0451 µM).

Take `COc1ccc(C(c2ccc(SC)cc2)C(Cl)(Cl)Cl)cc1` (stereo not drawn) [Example I, 2-(p-methoxyphenyl)-2-(p-methylthiophenyl)-1,1,1-trichloroethane]: the LC50 was found to be 0.044 µg/mL (≈ 0.122 µM).

As to `COc1ccc(C(c2ccc(C)cc2)C(Cl)(Cl)Cl)cc1` (stereo not drawn) [Example III], the LC50 was 0.12 µg/mL (≈ 0.364 µM).

Regarding `CCOc1ccc(C(c2ccc(SC)cc2)C(Cl)(Cl)Cl)cc1` (stereo not drawn) [Example II], the LC50 was determined as 0.054 µg/mL (≈ 0.144 µM).

`CCOc1ccc(C(c2ccc(C)cc2)C(Cl)(Cl)Cl)cc1` (stereo not drawn) [Example IV] gave an LC50 of 0.11 µg/mL (≈ 0.32 µM).

For the molecule `CCc1ccc(C(c2ccc(C)cc2)C(Cl)(Cl)Cl)cc1` (stereo not drawn) [Example VI], the LC50 was found to be 0.23 µg/mL (≈ 0.702 µM).

The molecule `CCCOc1ccc(C(c2ccc(C)cc2)C(Cl)(Cl)Cl)cc1` (stereo not drawn) [Example V] returned an LC50 of 0.2 µg/mL (≈ 0.559 µM).

For `COc1ccc(C(c2ccc(OC)cc2)C(Cl)(Cl)Cl)cc1` [Methoxychlor, 1,1,1-trichloro-2,2-bis-(pmethoxyphenyl)ethane, reference compound], the LC50 stood at 0.18 µg/mL (≈ 0.521 µM).

The subject of a further series is insects.
Experiment: not given
The settings on record: background statement, compared with DDT towards other species of insects; cited from earlier work.
Regarding `COc1ccc(C(c2ccc(OC)cc2)C(Cl)(Cl)Cl)cc1` [Methoxychlor, 1,1,1-trichloro-2,2-bis-(pmethoxyphenyl)ethane, reference compound], the “insecticidal activity (in words)” value is “considerably less insecticidal activity than DDT towards other species of insects”.

On to `CSc1ccc(C(c2ccc(SC)cc2)C(Cl)(Cl)Cl)cc1` [methiochlor, 1,1,1-trichloro-2,2-bis-(pmethiophenyl)ethane], for which the “insecticidal activity (in words)” value is recorded as “considerably less insecticidal activity than DDT towards other species of insects”.

In the case of `Cc1ccc(C(c2ccc(C)cc2)C(Cl)(Cl)Cl)cc1` [methylchor, 1,1,1-trichloro-2,2-bis (p methylphenyl)ethane], the “insecticidal activity (in words)” value was “considerably less insecticidal activity than DDT towards other species of insects”.

The series is the same for the next values; noted with them: background statement, toward certain species of insects; cited from earlier work.
For the molecule `COc1ccc(C(c2ccc(OC)cc2)C(Cl)(Cl)Cl)cc1` [Methoxychlor, 1,1,1-trichloro-2,2-bis-(pmethoxyphenyl)ethane, reference compound], the “insecticidal activity (in words), general” value is on record as “satisfactory insecticidal activity toward certain species of insects”.

Turning to `CSc1ccc(C(c2ccc(SC)cc2)C(Cl)(Cl)Cl)cc1` [methiochlor, 1,1,1-trichloro-2,2-bis-(pmethiophenyl)ethane], the “insecticidal activity (in words), general” value was “satisfactory insecticidal activity toward certain species of insects”.

Turning to `Cc1ccc(C(c2ccc(C)cc2)C(Cl)(Cl)Cl)cc1` [methylchor, 1,1,1-trichloro-2,2-bis (p methylphenyl)ethane], the “insecticidal activity (in words), general” value is recorded as “satisfactory insecticidal activity toward certain species of insects”.

Test system in the next series: not given
Experiment: not given
The settings on record: background statement; cited from earlier work.
In the case of `Clc1ccc(C(c2ccc(Cl)cc2)C(Cl)(Cl)Cl)cc1` [DDT, 1,1,1-trichloro-2,2-bis(p-chlorophenyl)ethane, reference compound], the lipid solubility entry is “high lipid solubility” and the water solubility entry is reported as “very low water solubility”.

Another series deals with multifunction oxidase (MFO) enzymes.
Experiment: not given
The settings on record: background statement; cited from earlier work.
Consider `Clc1ccc(C(c2ccc(Cl)cc2)C(Cl)Cl)cc1` [DDD, 1,1-dichloro 2,2-bis-(p-chlorophenyl) ethane], for which the “susceptibility to attack / detoxication by MFO enzymes” value was “highly resistant to detoxication by MFO enzymes”.

For the molecule `ClC(Cl)=C(c1ccc(Cl)cc1)c1ccc(Cl)cc1` [DDE, 1,1-dichloro-2,2-bis-(p-chloro-phyenyl)ethylene], the “susceptibility to attack / detoxication by MFO enzymes” value is “highly resistant to detoxication by MFO enzymes”.

Regarding `Clc1ccc(C(c2ccc(Cl)cc2)C(Cl)(Cl)Cl)cc1` [DDT, 1,1,1-trichloro-2,2-bis(p-chlorophenyl)ethane, reference compound], the “susceptibility to attack / detoxication by MFO enzymes” value is recorded as “highly resistant to detoxication by MFO enzymes”.

`COc1ccc(C(c2ccc(OC)cc2)C(Cl)(Cl)Cl)cc1` [Methoxychlor, 1,1,1-trichloro-2,2-bis-(pmethoxyphenyl)ethane, reference compound]: the “susceptibility to attack / detoxication by MFO enzymes” value was “readily attacked by MFO enzymes”.

Take `CSc1ccc(C(c2ccc(SC)cc2)C(Cl)(Cl)Cl)cc1` [methiochlor, 1,1,1-trichloro-2,2-bis-(pmethiophenyl)ethane]: the “susceptibility to attack / detoxication by MFO enzymes” value is “readily attacked by MFO enzymes”.
